Results from the supplement of paper PMC4862054.

Experiments:
HCC1599 = experiment: drug sensitivity score (DSS), CellTox Green (DSS (AUC-based score)); higher = stronger drug effect (viability inhibition or cytotoxicity); extreme values may be limits of the assay; conditions: incubation time: 72 h
Method in brief: (§1)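 The drug sensitivity score was computed from the area under the fitted dose-response curve. Breast cancer cell lines in 20 µl suspension went into 384-well plates holding compound at 5 concentrations (10-fold steps over a 10,000-fold, compound-specific range) for 72 h of incubation. CellTox Green fluorescence (485/520 nm) was read before CellTiter-Glo luminescence, the latter after 10 min at room temperature, and each plate was normalised to 0.1 % DMSO and a positive kill control.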

MCF-10A = experiment: as above; conditions: incubation time: 72 h
Method in brief: as §1

CAL-85-1 = experiment: as above; conditions: incubation time: 72 h
Method in brief: as §1

MDA-MB-453 = experiment: as above; conditions: incubation time: 72 h
Method in brief: as §1

MDA-MB-436 [1] = experiment: as above; conditions: incubation time: 72 h
Method in brief: as §1

HCC1143 = experiment: as above; conditions: incubation time: 72 h
Method in brief: as §1

HDQ-P1 = experiment: as above; conditions: incubation time: 72 h
Method in brief: as §1

CAL-148 = conditions: 72 h
Method in brief: (§2)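 To measure viability, fluorescence at 560/590 nm was read after 2.5 µl CellTiter-Blue had been added for 2 h at 37 °C. Cells from breast cancer lines had been seeded in 20 µl suspension onto 384-well plates pre-loaded with compound dissolved in 5 µl medium and kept for 72 h. EC50 comes from a fitted percent-inhibition dose-response curve censored at the highest concentration, after per-plate normalisation to vehicle and a positive kill control, Z'-factor checks, and removal of rows with zero drug sensitivity score.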

HCC1937 = conditions: 72 h
Method in brief: as §2

SK-BR-3 = conditions: 72 h
Method in brief: as §2

CAL-120 = conditions: 72 h
Method in brief: as §2

BT-549 = conditions: 72 h
Method in brief: as §2

MDA-MB-436 [2] = conditions: 72 h
Method in brief: as §2

Structure (SMILES): CN1CCC(COc2cnc(-c3cccc(Cn4nc(-c5cccc(C#N)c5)ccc4=O)c3)nc2)CC1
- drug sensitivity score (HCC1599): 0
- drug sensitivity score (MCF-10A): 0
- drug sensitivity score (CAL-85-1): 0.655
- drug sensitivity score (MDA-MB-453): 0
- drug sensitivity score (MDA-MB-436 [1]): 0
- drug sensitivity score (HCC1143): 0
- drug sensitivity score (HDQ-P1): 0
- EC50, CellTiter-Blue viability (CAL-148): 5800 nM
- EC50, CellTiter-Blue viability (HCC1937): 3980 nM
- EC50, CellTiter-Blue viability (SK-BR-3): 2470 nM
- EC50, CellTiter-Blue viability (CAL-120): 4950 nM
- EC50, CellTiter-Blue viability (BT-549): 2770 nM
- EC50, CellTiter-Blue viability (MDA-MB-436 [2]): 3530 nM

Structure (SMILES): CN(C)C/C=C/C(=O)Nc1cc2c(Nc3ccc(F)c(Cl)c3)ncnc2cc1O[C@H]1CCOC1 [Afatinib]
- drug sensitivity score (HCC1599): 0
- drug sensitivity score (MCF-10A): 0
- drug sensitivity score (CAL-85-1): 8
- drug sensitivity score (MDA-MB-453): 0
- drug sensitivity score (MDA-MB-436 [1]): 0
- drug sensitivity score (HCC1143): 1.18
- drug sensitivity score (HDQ-P1): 0
- EC50, CellTiter-Blue viability (CAL-148): 65 nM
- EC50, CellTiter-Blue viability (HCC1937): 1910 nM
- EC50, CellTiter-Blue viability (SK-BR-3): 7.53 nM
- EC50, CellTiter-Blue viability (CAL-120): 836 nM
- EC50, CellTiter-Blue viability (BT-549): 2700 nM
- EC50, CellTiter-Blue viability (MDA-MB-436 [2]): 5410 nM

Structure (SMILES): CN1CC[C@H](c2c(O)cc(O)c3c(=O)cc(-c4ccccc4Cl)oc23)[C@H](O)C1 [Alvocidib]
- drug sensitivity score (HCC1599): 0
- drug sensitivity score (MCF-10A): 16.1
- drug sensitivity score (CAL-85-1): 15.3
- drug sensitivity score (MDA-MB-453): 0
- drug sensitivity score (MDA-MB-436 [1]): 0
- drug sensitivity score (HCC1143): 0
- drug sensitivity score (HDQ-P1): 7.43
- EC50, CellTiter-Blue viability (CAL-148): 125 nM
- EC50, CellTiter-Blue viability (HCC1937): 133 nM
- EC50, CellTiter-Blue viability (SK-BR-3): 79.7 nM
- EC50, CellTiter-Blue viability (CAL-120): 98.2 nM
- EC50, CellTiter-Blue viability (BT-549): 298 nM
- EC50, CellTiter-Blue viability (MDA-MB-436 [2]): 330 nM

Structure (SMILES): Nc1nc(Cl)nc2c1ncn2[C@H]1C[C@H](O)[C@@H](CO)O1 [Cladribine]
- drug sensitivity score (HCC1599): 0
- drug sensitivity score (MCF-10A): 0
- drug sensitivity score (CAL-85-1): 0
- drug sensitivity score (MDA-MB-453): 0
- drug sensitivity score (MDA-MB-436 [1]): 0
- drug sensitivity score (HCC1143): 1.86
- drug sensitivity score (HDQ-P1): 0
- EC50, CellTiter-Blue viability (CAL-148): > 1000 nM
- EC50, CellTiter-Blue viability (HCC1937): 73.4 nM
- EC50, CellTiter-Blue viability (SK-BR-3): 884 nM
- EC50, CellTiter-Blue viability (CAL-120): 923 nM
- EC50, CellTiter-Blue viability (BT-549): 839 nM
- EC50, CellTiter-Blue viability (MDA-MB-436 [2]): 799 nM

Structure (SMILES): Nc1ccn([C@@H]2O[C@H](CO)[C@@H](O)[C@@H]2O)c(=O)n1 [Cytarabine]
- drug sensitivity score (HCC1599): 0
- drug sensitivity score (MCF-10A): 0.944
- drug sensitivity score (CAL-85-1): 0
- drug sensitivity score (MDA-MB-453): 0
- drug sensitivity score (MDA-MB-436 [1]): 0
- drug sensitivity score (HCC1143): 0
- drug sensitivity score (HDQ-P1): 0
- EC50, CellTiter-Blue viability (CAL-148): 32.3 nM
- EC50, CellTiter-Blue viability (HCC1937): 117 nM
- EC50, CellTiter-Blue viability (SK-BR-3): 487 nM
- EC50, CellTiter-Blue viability (CAL-120): 246 nM
- EC50, CellTiter-Blue viability (BT-549): 12.8 nM
- EC50, CellTiter-Blue viability (MDA-MB-436 [2]): 156 nM

Structure (SMILES): Cc1c2oc3c(C)ccc(C(=O)N[C@@H]4C(=O)N[C@H](C(C)C)C(=O)N5CCC[C@H]5C(=O)N(C)CC(=O)N(C)[C@@H](C(C)C)C(=O)O[C@@H]4C)c3nc-2c(C(=O)N[C@@H]2C(=O)N[C@H](C(C)C)C(=O)N3CCC[C@H]3C(=O)N(C)CC(=O)N(C)[C@@H](C(C)C)C(=O)O[C@@H]2C)c(N)c1=O [Dactinomycin]
- drug sensitivity score (HCC1599): 0
- drug sensitivity score (MCF-10A): 15.4
- drug sensitivity score (CAL-85-1): 16.4
- drug sensitivity score (MDA-MB-453): 0
- drug sensitivity score (MDA-MB-436 [1]): 0
- drug sensitivity score (HCC1143): 1.67
- drug sensitivity score (HDQ-P1): 0
- EC50, CellTiter-Blue viability (CAL-148): 0.76 nM
- EC50, CellTiter-Blue viability (HCC1937): 2.17 nM
- EC50, CellTiter-Blue viability (SK-BR-3): 2.91 nM
- EC50, CellTiter-Blue viability (CAL-120): 1.09 nM
- EC50, CellTiter-Blue viability (BT-549): 1.27 nM
- EC50, CellTiter-Blue viability (MDA-MB-436 [2]): 6.66 nM

Structure (SMILES): COc1cccc2c1C(=O)c1c(O)c3c(c(O)c1C2=O)C[C@@](O)(C(=O)CO)C[C@@H]3O[C@H]1C[C@H](N)[C@H](O)[C@H](C)O1 [Doxorubicin]
- drug sensitivity score (HCC1599): 0
- drug sensitivity score (MCF-10A): 0
- drug sensitivity score (CAL-85-1): 1.33
- drug sensitivity score (MDA-MB-453): 0
- drug sensitivity score (MDA-MB-436 [1]): 0
- drug sensitivity score (HCC1143): 0
- drug sensitivity score (HDQ-P1): 0
- EC50, CellTiter-Blue viability (CAL-148): 53.3 nM
- EC50, CellTiter-Blue viability (HCC1937): 55.1 nM
- EC50, CellTiter-Blue viability (SK-BR-3): 49.4 nM
- EC50, CellTiter-Blue viability (CAL-120): 96.4 nM
- EC50, CellTiter-Blue viability (BT-549): 196 nM
- EC50, CellTiter-Blue viability (MDA-MB-436 [2]): 190 nM

Structure (SMILES): COc1cc(Nc2ncc3c(n2)-c2ccc(Cl)cc2C(c2c(F)cccc2OC)=NC3)ccc1C(=O)O [MLN8237]
- EC50, CellTiter-Blue viability (CAL-148): 184 nM
- EC50, CellTiter-Blue viability (HCC1937): 24.6 nM
- EC50, CellTiter-Blue viability (SK-BR-3): 14.9 nM
- EC50, CellTiter-Blue viability (CAL-120): 593 nM
- EC50, CellTiter-Blue viability (BT-549): 918 nM
- EC50, CellTiter-Blue viability (MDA-MB-436 [2]): 145 nM
